How the values were obtained:
Fusarium culmorum = assay: Spore germination test, Fusarium culmorum; format: cell-based; settings: 48 hours, 20° C., vs untreated control
Description: (§1) 50 μl of a solution or suspension of an active ingredient according to the invention together with 50 μl of a spore suspension produced by washing spores of an agar culture with a nutrient solution that contained per liter 10 g of sugar, 1 g of glycol, 1 g of KH2 PO4 and 0.5 g of MgSO4 were introduced into the concave-ground portion of concave-ground microscope slides.
(§2) The microscope slides were stored at 20° C. for 48 hours in a Petri dish, the base of which was covered with a moistened filter paper.
(§3) Subsequently, the ratio of germinated and non-germinated spores was compared with an untreated control specimen.
(§4) The degree of activity was calculated as a percentage in accordance with the following formula: [formula]

Alternaria tenuis = assay: Spore germination test, Alternaria tenuis; format: cell-based; settings: 48 hours, 20° C., vs untreated control
Description: as §1, §2, §3, §4

Penicillium glaucum = assay: Spore germination test, Penicillium glaucum; format: cell-based; settings: 48 hours, 20° C., vs untreated control
Description: as §1, §2, §3, §4

Colletotrichum coffeanum = assay: Spore germination test, Colletotrichum coffeanum; format: cell-based; settings: 48 hours, 20° C., vs untreated control
Description: as §1, §2, §3, §4

Verticillium dahliae = assay: Spore germination test, Verticillium dahliae; format: cell-based; settings: 48 hours, 20° C., vs untreated control
Description: as §1, §2, §3, §4

Fusarium nivale = assay: Spore germination test, Fusarium nivale; format: cell-based; settings: 48 hours, 20° C., vs untreated control
Description: as §1, §2, §3, §4

Botrytis cinerea [1] = assay: Spore germination test, Botrytis cinerea; format: cell-based; settings: 48 hours, 20° C., vs untreated control
Description: as §1, §2, §3, §4

Botrytis cinerea [2] = assay: Fungicidal activity against Botrytis cinerea in broad beans; format: in vivo; settings: 500 ppm spray, broad beans "Midget", after 6 days, 20° C., 95% humidity, vs untreated
Description: Broad beans of the "Midget" variety were grown to a height of approximately 10 cm. The plants were sprayed until dripping wet with spray liquors containing 500 ppm of active ingredient.
When the spray coating had dried, the plants were inoculated with a spore suspension of Botrytis cinerea. The plants were placed in a climatic cabinet at a constant 20° C. and an atmospheric humidity of 95%.
After 6 days, fungicidal activity was evaluated. The activity was ascertained in comparison with untreated specimens.
The degree of activity as a percentage was ascertained in accordance with the following formula [formula] The following were used as active ingredients: I 2-chloro-3,5-dinitrophenylacetic acid iodopropargyl ester

O=C(Cc1ccc([N+](=O)[O-])cc1)OCC#CI [F]
degree of activity (fungal toxicity with respect to fungal spores) (Fusarium culmorum; 2 ppm): 40%
degree of activity (fungal toxicity with respect to fungal spores) (Alternaria tenuis; 2 ppm): 100%
degree of activity (fungal toxicity with respect to fungal spores) (Penicillium glaucum; 2 ppm): 80%
degree of activity (fungal toxicity with respect to fungal spores) (Colletotrichum coffeanum; 2 ppm): 90%
degree of activity (fungal toxicity with respect to fungal spores) (Verticillium dahliae; 2 ppm): 90%
degree of activity (fungal toxicity with respect to fungal spores) (Fusarium nivale; 2 ppm): 80%
degree of activity (fungal toxicity with respect to fungal spores) (Botrytis cinerea [1]; 2 ppm): 40%

O=C(Cc1cc([N+](=O)[O-])c(Cl)c([N+](=O)[O-])c1Cl)OCC#CI [G]
degree of activity (fungal toxicity with respect to fungal spores) (Fusarium culmorum; 2 ppm): 70%
degree of activity (fungal toxicity with respect to fungal spores) (Alternaria tenuis; 2 ppm): 70%
degree of activity (fungal toxicity with respect to fungal spores) (Penicillium glaucum; 2 ppm): 70%
degree of activity (fungal toxicity with respect to fungal spores) (Colletotrichum coffeanum; 2 ppm): 60%
degree of activity (fungal toxicity with respect to fungal spores) (Verticillium dahliae; 2 ppm): 70%
degree of activity (fungal toxicity with respect to fungal spores) (Fusarium nivale; 2 ppm): 80%
degree of activity (fungal toxicity with respect to fungal spores) (Botrytis cinerea [1]; 2 ppm): 100%

O=C(Cc1cc([N+](=O)[O-])c(Cl)c([N+](=O)[O-])c1)OCC#CI [H]
degree of activity (fungal toxicity with respect to fungal spores) (Fusarium culmorum; 2 ppm): 90%
degree of activity (fungal toxicity with respect to fungal spores) (Alternaria tenuis; 2 ppm): 100%
degree of activity (fungal toxicity with respect to fungal spores) (Penicillium glaucum; 2 ppm): 100%
degree of activity (fungal toxicity with respect to fungal spores) (Colletotrichum coffeanum; 2 ppm): 100%
degree of activity (fungal toxicity with respect to fungal spores) (Verticillium dahliae; 2 ppm): 40%
% Activity against Botrytis cinerea in broad beans (Botrytis cinerea [2]): 30%
degree of activity (fungal toxicity with respect to fungal spores) (Fusarium nivale; 2 ppm): 90%
degree of activity (fungal toxicity with respect to fungal spores) (Botrytis cinerea [1]; 2 ppm): 70%

O=C(Cc1cc([N+](=O)[O-])cc([N+](=O)[O-])c1Cl)OCC#CI [I]
% Activity against Botrytis cinerea in broad beans (Botrytis cinerea [2]): 80%

O=C(Cc1c(Cl)c([N+](=O)[O-])cc([N+](=O)[O-])c1Cl)OCC#CI [K]
% Activity against Botrytis cinerea in broad beans (Botrytis cinerea [2]): 30%

Cc1cc(C)c(CC(=O)OCC#CI)c(C)c1 [L]
% Activity against Botrytis cinerea in broad beans (Botrytis cinerea [2]): 20%

O=C(Cc1ccccc1)OCC#CI [V]
inhibition of growth at 1 ppm (Fusarium culmorum; Fusarium culmorum, 1 ppm, read-out: degree of activity (fungal toxicity with respect to fungal spores)): 0%
inhibition of growth at 2 ppm (Fusarium culmorum; Fusarium culmorum, 2 ppm, read-out: degree of activity (fungal toxicity with respect to fungal spores)): 0%
inhibition of growth at 4 ppm (Fusarium culmorum; Fusarium culmorum, 4 ppm, read-out: degree of activity (fungal toxicity with respect to fungal spores)): 40%
inhibition of growth at 1 ppm (Alternaria tenuis; Alternaria alternata, 1 ppm, read-out: degree of activity (fungal toxicity with respect to fungal spores)): 80%
inhibition of growth at 2 ppm (Alternaria tenuis; Alternaria alternata, 2 ppm, read-out: degree of activity (fungal toxicity with respect to fungal spores)): 90%
inhibition of growth at 4 ppm (Alternaria tenuis; Alternaria alternata, 4 ppm, read-out: degree of activity (fungal toxicity with respect to fungal spores)): 100%
inhibition of growth at 1 ppm (Penicillium glaucum; Penicillium, 1 ppm, read-out: degree of activity (fungal toxicity with respect to fungal spores)): 0%
inhibition of growth at 2 ppm (Penicillium glaucum; Penicillium, 2 ppm, read-out: degree of activity (fungal toxicity with respect to fungal spores)): 0%
inhibition of growth at 4 ppm (Penicillium glaucum; Penicillium, 4 ppm, read-out: degree of activity (fungal toxicity with respect to fungal spores)): 40%
inhibition of growth at 1 ppm (Colletotrichum coffeanum; Colletotrichum coffeanum, 1 ppm, read-out: degree of activity (fungal toxicity with respect to fungal spores)): 20%
inhibition of growth at 2 ppm (Colletotrichum coffeanum; Colletotrichum coffeanum, 2 ppm, read-out: degree of activity (fungal toxicity with respect to fungal spores)): 30%
inhibition of growth at 4 ppm (Colletotrichum coffeanum; Colletotrichum coffeanum, 4 ppm, read-out: degree of activity (fungal toxicity with respect to fungal spores)): 80%
inhibition of growth at 1 ppm (Verticillium dahliae; Verticillium dahliae, 1 ppm, read-out: degree of activity (fungal toxicity with respect to fungal spores)): 0%
inhibition of growth at 2 ppm (Verticillium dahliae; Verticillium dahliae, 2 ppm, read-out: degree of activity (fungal toxicity with respect to fungal spores)): 0%
inhibition of growth at 4 ppm (Verticillium dahliae; Verticillium dahliae, 4 ppm, read-out: degree of activity (fungal toxicity with respect to fungal spores)): 30%
% Activity against Botrytis cinerea in broad beans (Botrytis cinerea [2]): 0%
inhibition of growth at 1 ppm (Fusarium nivale; Microdochium nivale, 1 ppm, read-out: degree of activity (fungal toxicity with respect to fungal spores)): 60%
inhibition of growth at 2 ppm (Fusarium nivale; Microdochium nivale, 2 ppm, read-out: degree of activity (fungal toxicity with respect to fungal spores)): 70%
inhibition of growth at 4 ppm (Fusarium nivale; Microdochium nivale, 4 ppm, read-out: degree of activity (fungal toxicity with respect to fungal spores)): 90%
inhibition of growth at 1 ppm (Botrytis cinerea [1]; Botrytis cinerea, 1 ppm, read-out: degree of activity (fungal toxicity with respect to fungal spores)): 0%
inhibition of growth at 2 ppm (Botrytis cinerea [1]; Botrytis cinerea, 2 ppm, read-out: degree of activity (fungal toxicity with respect to fungal spores)): 0%
inhibition of growth at 4 ppm (Botrytis cinerea [1]; Botrytis cinerea, 4 ppm, read-out: degree of activity (fungal toxicity with respect to fungal spores)): 50%

Reference: US4639541A, “Substituted phenylacetic acid iodopropargyl esters, biocidal agents containing same and process for manufacturing same” (priority 1984, dated 1987)
